Data published in patent publication US4404201A, “Cephalosporins” (Warner-Lambert Company, priority 1981, dated 1983).

Legend:
Type in all cases: cell-based
[1] = system: Klebs. Pneum. MGH 2; experiment: Minimal Inhibitory Concentration, Klebs. Pneum. MGH 2; details: sodium salt
[2] = system: Pseudomonas UI 18; experiment: Minimal Inhibitory Concentration, Pseudomonas UI 18; details: UI18, sodium salt
[3] = system: E. Coli Brig; experiment: Minimal Inhibitory Concentration, E. Coli Brig; details: Escherichia coli, sodium salt
[4] = system: Staph S 18713; experiment: Minimal Inhibitory Concentration, Staph S 18713; details: sodium salt
[5] = system: E. Coli Vogel; experiment: Minimal Inhibitory Concentration, E. Coli Vogel; details: Escherichia coli, sodium salt
[6] = system: Pseudomonas BRK 12-4-4; experiment: Minimal Inhibitory Concentration, Pseudomonas BRK 12-4-4; details: BRK1244, sodium salt
[7] = system: Serr. Mar. IMM 16; experiment: Minimal Inhibitory Concentration, Serr. Mar. IMM 16; details: sodium salt
[8] = system: Staph UC76; experiment: Minimal Inhibitory Concentration, Staph UC76; details: sodium salt
[9] = system: Prot Vulg.; experiment: Minimal Inhibitory Concentration, Prot Vulg.; details: sodium salt
[10] = system: Entero Cloac. IM 11; experiment: Minimal Inhibitory Concentration, Entero Cloac. IM 11; details: sodium salt
[11] = system: Pseudomonas #28; experiment: Minimal Inhibitory Concentration, Pseudomonas #28; details: sodium salt
[12] = system: Strep. fec. MGH 2; experiment: Minimal Inhibitory Concentration, Strep. fec. MGH 2; details: sodium salt

Row | Structure (SMILES) | MIC [1] | MIC [2] | MIC [3] | MIC [4] | MIC [5] | MIC [6] | MIC [7] | MIC [8] | MIC [9] | MIC [10] | MIC [11] | MIC [12]
1 | CC(=O)N[C@@H](C)C(=O)Nc1ccc2[nH]cc(C(=O)N[C@@H](C(=O)NC3C(=O)N4C(C(=O)O)=C(CSc5nnnn5C)CSC34)c3ccccc3)c(=O)c2c1 (stereo partly drawn) [Example 7, N-[6-[[L-2-(Acetylamino)-1-oxopropyl]amino]-1,4-dihydro-4-oxo-3-quinolinylcarbonyl]-7-[D-2-amino-2-phenylacetamido]-3-[[(1-methyl-1H-tetrazol-5-yl)thio]methyl]-3-cephem-4-carboxylic acid] | 3.1 µg/mL | 6.3 µg/mL | 12.5 µg/mL | 6.3 µg/mL | 1.6 µg/mL | 12.5 µg/mL | 25 µg/mL | 1.6 µg/mL | 3.1 µg/mL | 12.5 µg/mL | 6.3 µg/mL | 
2 | CC(=O)N[C@@H](C)C(=O)Nc1ccc2c(=O)c(C(=O)N[C@@H](C(=O)NC3C(=O)N4C(C(=O)O)=C(COC(C)=O)CSC34)c3ccc(O)cc3)c[nH]c2c1 (stereo partly drawn) [Example 3, N-[7-[[L-2-(Acetylamino)-1-oxopropyl]amino]-1,4-dihydro-4-oxo-3-quinolinylcarbonyl]-7-[D-2-amino-2-(4-hydroxyphenyl)acetamido]-3-acetoxymethyl-3-cephem-4-carboxylic acid] | 1.6 µg/mL | 3.1 µg/mL | 12.5 µg/mL | 6.3 µg/mL | 1.6 µg/mL | 6.3 µg/mL | 50 µg/mL | 3.1 µg/mL | 6.3 µg/mL | 12.5 µg/mL | 3.1 µg/mL | 25 µg/mL
3 | Cn1nnnc1SCC1=C(C(=O)O)N2C(=O)C(NC(=O)[C@H](NC(=O)c3c[nH]c4cc(NC(=O)[C@@H]5CCC(=O)N5)ccc4c3=O)c3ccccc3)C2SC1 (stereo partly drawn) [Example 6, N-[1,4-Dihydro-4-oxo-7-[[(L-5-oxo-2-pyrrolidinyl)carbonyl]amino]-3-quinolinylcarbonyl]-7-[D-2-amino-2-phenylacetamido]-3-[[(1-methyl-1H-tetrazol-5-yl)thio]methyl]-3-cephem-4-carboxylic acid] | 1.6 µg/mL | 12.5 µg/mL | 6.3 µg/mL | 3.1 µg/mL | 0.8 µg/mL | 12.5 µg/mL | 25 µg/mL | 0.8 µg/mL | 6.3 µg/mL | 6.3 µg/mL | 6.3 µg/mL | 
4 | CC(=O)N[C@@H](C)C(=O)Nc1ccc2[nH]c(=O)c(C(=O)N[C@@H](C(=O)NC3C(=O)N4C(C(=O)O)=C(COC(C)=O)CSC34)c3ccc(O)cc3)cc2c1 (stereo partly drawn) [Example 8, N-[6-[[L-2-(Acetylamino)-1-oxopropyl]amino]-1,2-dihydro-2-oxo-3-quinolinylcarbonyl]-7-[D-2-amino-2-(4-hydroxyphenyl)acetamido]-3-acetoxymethyl-3-cephem-4-carboxylic acid] | 25 µg/mL | 3.1 µg/mL | 50 µg/mL | 6.3 µg/mL | 6.3 µg/mL | 6.3 µg/mL | > 50 µg/mL | 3.1 µg/mL | 25 µg/mL | 25 µg/mL | 3.1 µg/mL | 
5 | CC(=O)N[C@@H](CCC(N)=O)C(=O)Nc1ccc2c(=O)c(C(=O)N[C@@H](C(=O)NC3C(=O)N4C(C(=O)O)=C(CSc5nnnn5C)CSC34)c3ccc(O)cc3)c[nH]c2c1 (stereo partly drawn) [Example 5, N-[7-[[L-2-(Acetylamino)-5-amino-1,5-dioxopentyl]amino]-1,4-dihydro-4-oxo-3-quinolinylcarbonyl]-7-[D-2-amino-2-(4-hydroxyphenyl)acetamido]-3-[[(1-methyl-1H-tetrazol-5-yl)thio]methyl]-3-cephem-4-carboxylic acid] | 0.8 µg/mL | 6.3 µg/mL | > 50 µg/mL | 6.3 µg/mL | 0.4 µg/mL | 6.3 µg/mL | 6.3 µg/mL | 3.1 µg/mL | 3.1 µg/mL | 3.1 µg/mL | 3.1 µg/mL | 25 µg/mL
6 | CC(=O)N[C@@H](CCC(N)=O)C(=O)Nc1ccc2c(=O)c(C(=O)N[C@@H](C(=O)NC3C(=O)N4C(C(=O)O)=C(COC(C)=O)CSC34)c3ccc(O)cc3)c[nH]c2c1 (stereo partly drawn) [Example 4, N-[7-[[L-2-(Acetylamino)-5-amino-1,5-dioxopentyl]amino]-1,4-dihydro-4-oxo-3-quinolinylcarbonyl]-7-[D-2-amino-2-(4-hydroxyphenyl)acetamido]-3-acetoxymethyl-3-cephem-4-carboxylic acid] | 3.1 µg/mL | 12.5 µg/mL | > 50 µg/mL | 6.3 µg/mL | 0.8 µg/mL | 6.3 µg/mL | > 50 µg/mL | 3.1 µg/mL | 6.3 µg/mL | 12.5 µg/mL | 3.1 µg/mL | 25 µg/mL
7 | CC(=O)N[C@@H](C)C(=O)Nc1ccc2c(=O)c(C(=O)N[C@@H](C(=O)NC3C(=O)N4C(C(=O)O)=C(CSc5nnnn5C)CSC34)c3ccc(O)cc3)c[nH]c2c1 (stereo partly drawn) [Example 2, N-[7-[[L-2-(Acetylamino)-1-oxopropyl]amino]-1,4-dihydro-4-oxo-3-quinolinylcarbonyl]-7-[D-2-amino-2-(4-hydroxyphenyl)acetamido]-3-[[(1-methyl-1H-tetrazol-5-yl)thio]methyl]-3-cephem-4-carboxylic acid] | 0.4 µg/mL | 6.3 µg/mL | > 50 µg/mL | 6.3 µg/mL | 0.4 µg/mL | 3.1 µg/mL | 0.3 µg/mL | 3.1 µg/mL | 3.1 µg/mL | 3.1 µg/mL | 3.1 µg/mL | 25 µg/mL
8 | CC(=O)N[C@@H](C)C(=O)Nc1ccc2c(=O)c(C(=O)N[C@@H](C(=O)NC3C(=O)N4C(C(=O)O)=C(CSc5nnnn5CS(=O)(=O)O)CSC34)c3ccccc3)c[nH]c2c1 (stereo partly drawn) [Example 1, N-[7-[[L-2-(Acetylamino)-1-oxopropyl]amino]-1,4-dihydro-4-oxo-3-quinolinylcarbonyl]-7-[D-2-amino-2-phenylacetamido]-3-[[(1-sulfomethyl-1H-tetrazol-5-yl)thio]methyl]-3-cephem-4-carboxylic acid] | 0.8 µg/mL | 3.1 µg/mL | > 50 µg/mL | 12.5 µg/mL | 0.8 µg/mL | 6.3 µg/mL | 3.2 µg/mL | 6.3 µg/mL | 0.8 µg/mL | 6.3 µg/mL | 3.1 µg/mL | > 50 µg/mL
